Test results: US6677309B1, “Anti-cancer drug aldehyde conjugate drugs with enhanced cytotoxicity compounds, compositions and methods” (University Technology Corporation, priority 1997, dated 2004)

Assays:
[1] = test system: self-complementary DNA octamer (GC)4; test: Drug-DNA conjugate formation with (GC)4, HPLC; type: biochemical; conditions: for DNA reacted to form drug-DNA conjugates: 33 μM (GC)4, 33 μM conjugate, 4% DMSO
Method: The amount of available formaldehyde was 99 μM (3×33 μM). […] The experiment was also run at 25° C. in pH 6.0 phosphate buffer containing 4% DMSO. […] The ratio for conjugate 1 was assumed to be 24:1, based upon the value for conjugate 2. […] Under these circumstances, the conjugate 1 area was estimated based upon its 480 nm absorbance, assuming the 24:1 ratio for A260:A480.
The formation of drug-DNA conjugates at 25° C. was monitored by HPLC (Method II). […] The experiment was also run in pH 6.0 phosphate buffer containing 4% DMSO.

[2] = test system: MCF-7/ADR cells; test: In vitro cytotoxicity, colony formation by crystal violet assay, MCF-7/ADR; conditions: for fold higher cytotoxicity against MCF-7/ADR cells relative to the parent drug: relative to the respective parent drug
Method: The term IC50 as used herein refers to the concentration of drug which inhibits cell growth by 50%, i.e., 50% of cells are viable at the IC50 concentration relative to a no-drug control.
Cells were incubated with drug for 3 h in RPMI (Roswell Park Memorial Institute) 1640 media containing 10% fetal bovine serum and 1% DMSO. Plates, were developed using the crystal violet assay. […] In all cases percent survival was determined by the extent of colony formation six days after drug treatment.
All tissue culture materials were obtained from Gibco Life Technologies (Grand Island, N.Y.) unless otherwise stated. MCF-7 breast cancer cells were obtained from American Type Culture Collection (Rockville, Md.). […] Both cell lines were maintained in vitro by serial culture in phenol red-free RPMI Media 1640 supplemented with 10% fetal bovine serum (Gemini Bio-Products, Calbasas, Calif.), L-glutamine (2 mM), HEPES buffer (10 mM), penicillin (100 units/mL), and streptomycin (100 μg/mL). […] Cells were maintained at 37° C. in a humidified atmosphere of 5% CO2 and 95% air.
Cells were dissociated with trypsin-EDTA, counted, and suspended in growth media to a concentration of 5×10^3 cells/mL. Cell suspensions were dispensed in 200 μL aliquots into 96-well tissue culture plates. Plates were then incubated for 24 h at 37° C. in a humidified atmosphere of 5% CO2 and 95% air. The media was replaced with 180 μL of growth media prior to addition of the cytotoxic agents.
Concentrations were then corrected by measuring the solution absorbance at 480 nm (ε=11,500/mole anthracycline). The solutions were then serially diluted in DMSO to give a series of 100× working concentration solutions. For each concentration, the 100× solution was diluted 1:10 in serum-free RPMI Media 1640. 20 μL of the resulting […] solution was immediately added to the appropriate lane. Additionally, one lane was treated with 20 μL of 10% DMSO in serum-free RPMI (no drug) and one lane replaced with 200 μL of 1.5 M Tris buffer (no cells). The cells were incubated at 37° C. for 3 h. The drug solutions were removed and 200 μL of fresh growth media was added to each well.
The extent of colony formation was determined by use of a crystal violet staining assay (Gilles, R. J. et al. (1986), “Determination of cell number in monolayer cultures,” Anal. Biochem. 159:109-113; Reile, H. et al. (1990), “Computerized determination of growth kinetic curves and doubling times from cells in microcultures,” Anal. Biochem. 187:262-267). […] The cells were then stained with 75 μL of 0.1% crystal violet in deionized water for 30 min. […] The plates were blotted dry and 200 μL of 70% ethanol in water was added to each well to solublize the dye. The plates were stored at 4° C. until solubilization was complete (about 4 h). The optical density of each well was measured on an ELISA plate reader at 588 nm. Relative colony sizes were determined by comparison of the drug treated lanes to the control lanes.
MCF-7 breast cancer cells were obtained from American Type Culture Collection (Rockville, Md.). MCF-7/ADR adriamycin resistant breast cancer cells were a gift of Dr. William W. Wells (Michigan State University). Both cell lines were maintained in vitro by serial culture in phenol red-free RPMI Media 1640 supplemented with 10% fetal bovine serum (Gemini Bio-Products, Calbasas, Calif.), L-glutamine (2 mM), HEPES buffer ([…]), penicillin (100 units/mL), and streptomycin (100 μg/mL). […] Cells were maintained at 37° C. in a humidified atmosphere of 5% CO2 and 95% air.
These were then diluted 10× with autoclaved Millipore water.

COc1cccc2c1C(=O)c1c(O)c3c(c(O)c1C2=O)C[C@@](O)(C(C)=O)C[C@@H]3O[C@H]1C[C@H]2[C@H](OCN2CN2CO[C@@H]3[C@H](C)O[C@@H](O[C@H]4C[C@](O)(C(C)=O)Cc5c(O)c6c(c(O)c54)C(=O)c4c(OC)cccc4C6=O)C[C@@H]32)[C@H](C)O1 [DAUNF, bis(3′-N-(3′-N,4′-O-methylenedaunorubicinyl))methane]
(GC)4 reacted relative to the equivalent amount of daunorubicin and formaldehyde ([1]; 33 μM (GC)4, 55 μM conjugate, pH 7.4, 25° C., after approximately 1 min): four times as much (GC)4 | extent of DNA reaction to drug-DNA conjugates ([1]; 317 μM (GC)4, 357 μM conjugate, pH 7.4 phosphate buffer, 25° C., 41 h): completely reacted | IC50 ([2]; read-out: IC50 Values, MCF-7-ADR, 3 h drug incubation in RPMI 1640, 10% fetal bovine serum, 1% DMSO, colony formation six days after treatment, fresh drug solution): 5 nM | fold higher cytotoxicity against MCF-7/ADR cells relative to the parent drug [2]: 200 fold

COc1cccc2c1C(=O)c1c(O)c3c(c(O)c1C2=O)CC(O)(C(=O)CO)CC3OC1CC2C(OCN3CN2COC2C(C)OC(OC4C[C@](O)(C(=O)CO)Cc5c(O)c6c(c(O)c54)C(=O)c4c(OC)cccc4C6=O)CC23)C(C)O1 (stereo partly shown) [EPIF]
DNA reacted to form drug-DNA conjugates ([1]; pH 6.0 phosphate buffer, 25° C., 5 h): 64% | DNA reacted to form drug-DNA conjugates ([1]; pH 7.3 phosphate buffer, 25° C., 24 h): 68% | DNA that had formed drug-DNA conjugates ([1]; 398 μM (GC)4, 796 μM conjugate, pH 7.3 phosphate buffer, 25° C., 5 h): 91% | IC50 fold higher than a fresh solution ([2]; MCF-7/ADR, after 20 h in 90% H2O/10% DMSO at 37° C. or 20 h in DMSO at ambient temperature): 5 fold | fold more toxic to resistant cells with respect to epidoxorubicin, conjugate in equilibrium with its hydrolysis products ([2]; MCF-7/ADR, hydrolysed equilibrium mixture): greater than 25 fold | fold higher cytotoxicity against MCF-7/ADR cells relative to the parent drug [2]: greater than 120 fold
